Patent US12528825B2, “Compounds and uses thereof” (Foghorn Therapeutics Inc., priority 2020, dated 2026)
“Also recorded” adds a separate entry of the source.

What was measured:
[1] = system: SYO-1 human biphasic synovial sarcoma tumor cells; assay: SYO-1 synovial sarcoma xenograft tumor growth in NOD SCID mice; format: in vivo; conditions: 1 mg/kg, i.p., daily, 3 weeks, SYO-1 xenograft
Method: (§1) Method: NOD SCID mice (Beijing Anikeeper Biotech, Beijing) were inoculated subcutaneously on the right flank with the single cell suspension of SYO-1 human biphasic synovial sarcoma tumor cells (5×106) in 100 μL Dulbecco's Modified Eagle Medium (DMEM) with 10% fetal bovine serum (FBS). The mice were randomized into either control group [10% dimethyl sulfoxide (DMSO), 40% polyethylene glycol (PEG400) and 50% water], or treatment group D1 when the mean tumor size reached about 117 mm^3. Mice were dosed daily through intraperitoneal (i.p.) route over the course of 3 weeks. All dose volumes were adjusted by body weights in terms of mg/kg.

[2] = Tolerability (% body weight change) in the SYO-1 xenograft study; format: in vivo; conditions: 1 mg/kg, i.p., daily, 3 weeks; NOD SCID mice
Method: as §1

BRD9 = target: T1, BRD9 (Homo sapiens, UniProt Q9H8M2); assay: BRD9 western blot in synovial sarcoma tumors in vivo; set-up: species or system mice; conditions: 1 mg/kg, i.p., 4 weeks; tumors collected 8, 72 and 168 hours post last dose; effect up to 168 hours after dose
T1 construct: Tumors were lysed with 1× RIPA lysis buffer; from tissue; host or cells: synovial sarcoma tumours collected from treated mice
T1 sequence (Q9H8M2 1-597): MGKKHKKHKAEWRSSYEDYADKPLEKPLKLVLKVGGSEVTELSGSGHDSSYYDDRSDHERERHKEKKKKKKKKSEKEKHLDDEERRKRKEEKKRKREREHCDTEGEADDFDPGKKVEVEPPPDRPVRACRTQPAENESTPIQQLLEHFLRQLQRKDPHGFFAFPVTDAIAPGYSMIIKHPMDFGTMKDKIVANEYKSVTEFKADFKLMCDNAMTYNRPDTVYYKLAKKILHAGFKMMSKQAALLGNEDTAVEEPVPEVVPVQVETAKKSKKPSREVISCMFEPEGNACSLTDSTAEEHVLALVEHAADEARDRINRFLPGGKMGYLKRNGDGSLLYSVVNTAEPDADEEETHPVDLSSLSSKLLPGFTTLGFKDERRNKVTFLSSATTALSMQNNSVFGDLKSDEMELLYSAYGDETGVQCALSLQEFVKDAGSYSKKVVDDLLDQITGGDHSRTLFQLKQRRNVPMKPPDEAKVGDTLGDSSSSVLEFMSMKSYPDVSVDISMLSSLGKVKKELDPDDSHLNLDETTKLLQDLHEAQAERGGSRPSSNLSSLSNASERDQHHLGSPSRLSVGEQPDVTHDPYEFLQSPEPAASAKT
Method: Method: Mice were treated with D1, 1 mg/kg, i.p. for 4 weeks. Mice were then euthanized, and tumors were collected at 8 hours, 72 hours, and 168 hours post last dose. Tumors were lysed with 1× RIPA lysis buffer (Boston BioProducts, BP-115D) with protease and phosphatase protein inhibitor (Roche Applied Science #04906837001 & 05892791001). Equal amounts of lysate (30 μg) were loaded in 4-12% Bis-Tris Midi Protein Gels in 1×MOPS buffer; samples ran at 120 V for 120 minutes. Protein was transferred to membrane with TransBlot at 250 mA for 150 minutes, and then membranes were blocked with Odyssey blocking buffer for 1 hour at room temperature. Membranes were hybridized overnight in cold room with primary antibodies. Images acquired using Li-COR imaging system (Li-COR Biotechnology, Lincoln, Nebraska).

[3] = system: synovial sarcoma cell lines (SYO1, Yamato, HS-SY-II, and ASKA); assay: Growth of synovial sarcoma cell lines (IncuCyte confluency, crystal violet, colony imaging); format: cell-based; conditions: 1 μM or indicated concentrations, FIGS. 4-6
Method: (§2) Cells were treated with DMSO or the BRD9 degrader, Compound 1, at indicated concentrations, and proliferation was monitored from day 7 to day 14 by measuring confluency over time using an IncuCyte live cell analysis system (FIG. 4). Growth medium and compounds were refreshed every 3-4 days.
(§3) Cells were seeded into 12-well plates and treated with DMSO, 1 μM BRD9 inhibitor, Compound 2 (also known as BI-7273, see Martin et al, J Med Chem. 59(10):4462-4475 (2016); see structure of compound 2 below), or 1 μM BRD9 degrader, Compound 1.
(§4) The number of cells was optimized for each cell line. Growth medium and compounds were refreshed every 3-5 days. SYO1, Yamato, A549, 293T and HS-SY-II cells were fixed and stained at day 11. ASKA cells were fixed and stained at day 23. Staining was done by incubation with crystal violet solution (0.5 g Crystal Violet, 27 ml 37% Formaldehyde, 100 mL 10×PBS, 10 mL Methanol, 863 dH20 to 1 L) for 30 min followed by 3× washes with water and drying the plates for at least 24 h at room temperature. Subsequently plates were scanned on an Odyssey CLx Imaging system (FIG. 5).
(§5) Cells were seeded into 96-well ultra-low cluster plate (Costar, #7007) in 200 μL complete media and treated at day 2 with DMSO, Staurosporin, or BRD9 degrader, Compound 1, at indicated doses (FIG. 2C). Media and compounds were changed every 5 d and cell colonies were imaged at day 14.

[4] = system: non-synovial control cancer cell lines (293T, A549, G401); assay: Growth of non-synovial control cancer cell lines (crystal violet, colony imaging); format: cell-based; conditions: 1 μM or indicated doses, FIGS. 4-6
Method: as §2, §3, §4, §5

[5] = system: synovial sarcoma cell lines (SYO1, HS-SY-II, and ASKA); assay: Crystal violet growth assay, synovial sarcoma cell lines, day 14; format: cell-based; conditions: for inhibition of growth of synovial sarcoma cell lines: SYO1, HS-SY-II, ASKA, treated daily, indicated concentrations, day 14, FIG. 7
Method: (§6) Procedure: Cells were seeded into 6-well or 12-well plates and were treated daily with a BRD9 degrader (Compound 1), a bromo-domain BRD9 binder (Compound 2), E3 ligase binder (lenalidomide), DMSO, or staurosporin (positive control for cell killing), at indicated concentrations. The number of cells was optimized for each cell line. Growth media was refreshed every 5 days. By day 14, medium was removed, cells were washed with PBS, and stained using 500 μL of 0.005% (w/v) crystal violet solution in 25% (v/v) methanol for at least 1 hour at room temperature. Subsequently plates were scanned on an Odyssey CLx Imaging system.

[6] = system: non-synovial control cancer cell lines (RD, HCT116, and Calu6); assay: Crystal violet growth assay, non-synovial control cancer cell lines, day 14; format: cell-based; conditions: treated daily, indicated concentrations, FIG. 8
Method: as §6

SYO1 cells [7] = assay: Cell cycle analysis (Click-iT Plus EdU flow cytometry); format: cell-based, human; conditions: 200 nM or 1 μM, 8 or 13 days, compared to DMSO and lenalidomide
Method: (§7) Procedure: SYO1 cells were treated for 8 or 13 days with DMSO, a BRD9 degrader (Compound 1) at 200 nM or 1 μM, or an E3 ligase binder (lenalidomide) at 200 nM. Compounds were refreshed every 5 days. Cell cycle analysis was performed using the Click-iT™ Plus EdU Flow Cytometry Assay (Invitrogen). The apoptosis assay was performed using the Annexin V-FITC Apoptosis Detection Kit (Sigma A9210). Assays were performed according to the manufacturer's protocol.

SYO1 cells [8] = assay: Apoptosis assay (Annexin V-FITC); format: cell-based, human; conditions: 200 nM or 1 μM, 8 days, compared to DMSO controls
Method: as §7

Row | SMILES | tumor growth [1] | tolerability based on % body weight change [2] | BRD9 level in tumor (western blot) (BRD9) | inhibition of growth of synovial sarcoma cell lines [3] | inhibition of growth of non-synovial control cancer cell lines [4] | inhibition of growth of synovial sarcoma cell lines [5] | growth inhibition compared with the other test compounds ([5]; all synovial cell lines) | inhibition of growth of non-synovial control cancer cell lines [6] | numbers of cells in the S-phase of the cell cycle (SYO1 cells [7]) | numbers of early- and late-apoptotic cells (SYO1 cells [8])
1 | COc1cc(-c2cn(C)c(=O)c3cc(C(=O)NC4CCN(C5CCN(c6ccc7c(c6)C(=O)N(C6CCC(=O)NC6=O)C7)CC5)CC4(F)F)sc23)cc(OC)c1CN(C)C (centres unmarked) [Compound D1, 7-[4-[(dimethylamino)methyl]-3,5-dimethoxyphenyl]-N-[1′-[2-(2,6-dioxopiperidin-3-yl)-3-oxo-1H-isoindol-5-yl]-3,3-difluoro-[1,4′-bipiperidin]-4-yl]-5-methyl-4-oxothieno[3,2-c]pyridine-2-carboxamide] | tumor growth inhibition | well tolerated | complete degradation; also recorded: BRD9 inhibition | – | – | – | – | – | – | –
2 | COc1cc(-c2cn(C)c(=O)c3cnccc23)cc(OC)c1CN(C)CC(=O)NCCOCCOCCNc1cccc2c1C(=O)N(C1CCC(=O)NC1=O)C2=O (centres unmarked) [Compound 1] | – | – | – | inhibition of the growth of the cells | does not result in inhibition of the growth | inhibition of the growth of the cells | most significant growth inhibition | did not result in inhibition of the growth | reduced numbers of cells in the S-phase | increased numbers of early- and late-apoptotic cells
3 | COc1cc(-c2cn(C)c(=O)c3cnccc23)cc(OC)c1CN(C)C [Compound 2] | – | – | – | inhibition of the growth of the cells | does not result in inhibition of the growth | inhibition of the growth of the cells | – | did not result in inhibition of the growth | – | –
